Results on 25 molecules are retold here after patent publication US10369166B2 (priority 2014, dated 2019).

Values joined by “and” are separate entries in the source; they are usually repeats but may differ in a detail not shown here. Equal entries are not always repeated. Where two headings read alike, the source gives them in different places.

In series [1] the test system is Ebola virus. As to conditions: in vivo.
The conditions of series [2]: mouse, in vivo; cited from earlier work.
For series [3] the following is noted: in vivo.
For series [4], the target named is T1, (CAT B) CATHEPSIN B (Homo sapiens, UniProt P07858). It counts as biochemical.
Series [5] deals with T1, (CAT B) CATHEPSIN B. As to conditions: cited from earlier work.
The target in series [6] is T2, GLP (Homo sapiens, UniProt Q9H9B1).
T2 sequence (Q9H9B1 1-1298): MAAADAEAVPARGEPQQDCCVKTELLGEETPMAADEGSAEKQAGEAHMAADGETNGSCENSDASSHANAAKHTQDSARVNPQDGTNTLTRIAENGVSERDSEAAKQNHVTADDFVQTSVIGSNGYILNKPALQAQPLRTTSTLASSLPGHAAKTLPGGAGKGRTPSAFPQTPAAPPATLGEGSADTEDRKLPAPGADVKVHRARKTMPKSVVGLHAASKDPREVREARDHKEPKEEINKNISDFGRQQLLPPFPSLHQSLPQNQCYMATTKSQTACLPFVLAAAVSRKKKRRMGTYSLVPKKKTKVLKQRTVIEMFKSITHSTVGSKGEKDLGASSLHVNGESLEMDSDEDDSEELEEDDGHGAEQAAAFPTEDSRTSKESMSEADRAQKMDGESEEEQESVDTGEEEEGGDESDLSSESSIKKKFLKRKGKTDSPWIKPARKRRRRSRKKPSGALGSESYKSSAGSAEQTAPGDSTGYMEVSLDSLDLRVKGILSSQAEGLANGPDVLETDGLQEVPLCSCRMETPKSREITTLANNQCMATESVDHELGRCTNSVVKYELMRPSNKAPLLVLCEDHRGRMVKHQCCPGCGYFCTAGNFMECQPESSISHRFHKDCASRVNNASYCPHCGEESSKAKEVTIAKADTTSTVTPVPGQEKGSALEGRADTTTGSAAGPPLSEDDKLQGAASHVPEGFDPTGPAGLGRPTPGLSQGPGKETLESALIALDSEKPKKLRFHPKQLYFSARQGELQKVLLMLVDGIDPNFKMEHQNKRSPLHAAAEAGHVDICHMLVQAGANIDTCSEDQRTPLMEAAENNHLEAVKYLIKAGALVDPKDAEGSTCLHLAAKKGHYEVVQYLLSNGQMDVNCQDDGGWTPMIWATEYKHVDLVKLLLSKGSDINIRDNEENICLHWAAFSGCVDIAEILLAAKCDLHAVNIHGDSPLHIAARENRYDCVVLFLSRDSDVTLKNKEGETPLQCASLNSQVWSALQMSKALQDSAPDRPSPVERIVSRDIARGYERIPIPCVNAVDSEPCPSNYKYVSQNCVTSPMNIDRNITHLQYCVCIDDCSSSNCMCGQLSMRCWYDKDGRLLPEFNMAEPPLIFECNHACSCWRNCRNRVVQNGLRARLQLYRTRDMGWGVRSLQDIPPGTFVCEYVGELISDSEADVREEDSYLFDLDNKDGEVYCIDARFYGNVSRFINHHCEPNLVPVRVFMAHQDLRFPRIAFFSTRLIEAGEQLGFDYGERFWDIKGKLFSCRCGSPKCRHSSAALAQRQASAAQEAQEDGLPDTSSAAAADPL
As to conditions: cited from earlier work.

Series [7] has as its system MCF7 cells. As to conditions: cited from earlier work.
In series [8] the test system is E[…].
In series [9] the test system is Ebolavirus Sudan Gulu. It counts as cell-based.
In series [10] the test system is COLLAGEN
The note with it: cited from earlier work.

For series [11] the following is noted: in vivo, cited from earlier work.
For series [12] the following is noted: in vivo; cited from earlier work.
Series [13] deals with TNF ALPHA (Homo sapiens, UniProt P01375). The note with it: cited from earlier work.
Chain of TNF ALPHA (P01375 whole entry, species assumed): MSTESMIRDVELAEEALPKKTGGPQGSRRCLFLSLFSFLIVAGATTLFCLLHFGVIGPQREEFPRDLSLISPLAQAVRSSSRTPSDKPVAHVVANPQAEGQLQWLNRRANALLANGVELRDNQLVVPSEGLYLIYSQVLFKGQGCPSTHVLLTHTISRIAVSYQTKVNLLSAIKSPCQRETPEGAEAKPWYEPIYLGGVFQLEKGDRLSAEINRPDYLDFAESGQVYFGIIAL
Series [14] relates to folate. The note with it: cited from earlier work.
Series [15] concerns the target S-ADENOSYL HO[…] (SAHH) (Homo sapiens, UniProt P23526). The note with it: cited from earlier work.
Series [16] concerns G9a/GLP-mediated dimethylation of histone 3 on lysine 9. As to conditions: cited from earlier work.
For series [17], the system named is α-glucosidase.

Chain of S-ADENOSYL HO[…] (SAHH) (P23526 whole entry, species assumed): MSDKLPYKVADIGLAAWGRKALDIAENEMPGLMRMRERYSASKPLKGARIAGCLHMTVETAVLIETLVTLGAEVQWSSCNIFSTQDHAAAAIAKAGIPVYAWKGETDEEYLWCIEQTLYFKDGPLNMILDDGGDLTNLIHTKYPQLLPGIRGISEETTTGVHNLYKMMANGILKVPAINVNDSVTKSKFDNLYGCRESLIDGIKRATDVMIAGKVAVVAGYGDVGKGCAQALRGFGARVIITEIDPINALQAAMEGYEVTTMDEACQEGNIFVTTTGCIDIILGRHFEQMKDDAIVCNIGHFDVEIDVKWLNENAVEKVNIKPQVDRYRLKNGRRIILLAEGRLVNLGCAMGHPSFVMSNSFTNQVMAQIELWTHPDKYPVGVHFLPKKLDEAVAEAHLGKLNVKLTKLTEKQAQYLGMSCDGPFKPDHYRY

Regarding `COc1ccc2cc3[n+](cc2c1OC)CCc1cc2c(cc1-3)OCO2` [BERBERINE], the “residual viral load after the product (sequential)” value (shortened to “residual viral load”) in series [1] is given as 235 pfu/ml. The “Oral LD50” value in [2] is “(mouse): >29,586 mg/kg”. Besides, the LD50 in [3] came to 2072 g. In addition, the ED50 in series [4] is given as 0.185 g/day. Moreover, the half-inhibitory concentration (IC50) in [5] is 550 µM.
`C[C@H]1[C@H](C)CC[C@]2(C(=O)O)CC[C@]3(C)C(=CC[C@@H]4[C@@]5(C)CC[C@H](O)C(C)(C)[C@@H]5CC[C@]43C)[C@H]12` [BETA-URSOLIC ACID]: the “residual viral load” value in series [1] was determined as 12500 pfu/ml. Besides, the half-maximal inhibitory concentration (IC50) in [5] is 10 µM.
Turning to `COc1cc2c(NC3CCN(C4CCCCC4)CC3)nc(N3CCCN(C(C)C)CC3)nc2cc1OCCCN1CCCCC1` [UNC0646], the half-inhibitory concentration (IC50) in [6] is 0.015 µM. Also, the concentration giving a half-maximal response (EC50) in series [7] was 4.7 µM.
As to `N[C@@H](CCS)C(=O)O` [HOMOCYSTEINE], the ED50 in [8] was determined as 0.4725 g.
Take `COc1c(C)c2c(c(O)c1C/C=C(\C)CCC(=O)O)C(=O)OC2` [Mycophenolic acid]: in series [1], the “Residual estimated viral load” value was 2 × 10^6 pfu/ml.
Consider `CC(C)N(C[C@H]1O[C@@H](n2cnc3c(N)ncnc32)[C@H](O)[C@@H]1O)C1CC(CCc2nc3ccc(C(C)(C)C)cc3[nH]2)C1` (stereo partly drawn) [EPZ-5676], for which the “Molarity at last dilution” value in series [9] worked out at 0.4 µM.
As to `NC(=O)c1ncn([C@@H]2O[C@H](CO)[C@@H](O)[C@H]2O)n1` [ribovirin], the “Molarity at last dilution” value in series [9] came to 25 µM.
Consider `N=C(N)NCCC[C@H](N)C(=O)O` [Arginine], for which, in [10], the ED50 was 2.5 g.
Take `CC(C)N(CCCNC(=O)Nc1ccc(C(C)(C)C)cc1)C[C@H]1O[C@@H](n2ccc3c(N)ncnc32)[C@H](O)[C@@H]1O` [EPZ004777]: the “Rat LD50” value in series [11] was 590 mg/kg.
Consider `O=C1O[C@H]([C@@H](O)CO)C(O)=C1O` [VITAMIN C], for which, in [1], the “residual viral load” value came to 50000 pfu/ml. The LD50 in series [12] is listed as 11,900 mg/kg. Moreover, the ED50 in series [13] is 29 to 60 mg/kg.
Turning to `Nc1nccc2c1ncn2[C@@H]1O[C@H](CO)[C@@H](O)[C@H]1O` [CA-C3-ADO, 3-deaza-adenosine], in [9], the “Molarity at last dilution” value is 200 µM.
For `COc1cc(/C=C/C(=O)CC(=O)/C=C/c2ccc(O)c(OC)c2)ccc1O` [CURCUMIN], the “residual viral load” value in [1] amounted to 25000 pfu/ml. Also, the ED50 in series [13] is 29 to 60 mg/kg.
As for epigallocatechin-3 gallate [EGCG], the “residual viral load” value in series [1] came out at 106 pfu/ml. Further, the 50% inhibitory concentration (IC50) in series [14] is 34.8 µM.
For the molecule `OC[C@H]1O[C@@H](n2cnc3c(O)ncnc32)[C@H](O)[C@@H]1O` [INOSINE], the ED50 in series [15] is 29 to 60 mg/kg.
Consider `CC1(C)CC[C@]2(C(=O)O)CC[C@]3(C)C(=CC[C@@H]4[C@@]5(C)CC[C@H](O)C(C)(C)[C@@H]5CC[C@]43C)[C@@H]2C1` [BETA-OLEANOLIC ACID], for which the “residual viral load” value in [1] was found to be 1875 pfu/ml. The molecule also showed an ED50 in series [4] of 0.004 g. For the same molecule, the IC50 in series [5] is 9 µM.
`O=c1c(O)c(-c2ccc(O)c(O)c2)oc2cc(O)cc(O)c12` [QUERCETIN]: in series [1], the “residual viral load” value came out at 469 pfu/ml. The molecule also registered an LD50 in series [3] of 11.27 g. The molecule also registered an ED50 in series [4] of 0.03 g. Moreover, the IC50 in series [5] is 11 µM. The “Oral LD50” value in series [11] (rat, po) is given as “(rat): 161 mg/kg”.
Turning to `Nc1nccc2c1ncn2[C@@H]1C=C(CO)[C@@H](O)[C@H]1O` [3-DEAZANEPLANOCIN A], in series [1], the “Residual estimated viral load” value was 10^5 pfu/ml and 10^7 pfu/ml and 10^8 pfu/ml.
With `NCCC[C@H](N)C(=O)O` [Ornithine], the ED50 in series [10] is reported as 3.5 g.
Consider `[O]=[V]([O-])([O-])[O-]` [VANADATE], for which the “residual viral load” value in series [1] is listed as 212 pfu/ml.
With `COc1cc2c(NC3CCN(CC4CCCCC4)CC3)nc(N3CCCN(C(C)C)CC3)nc2cc1OCCCN1CCCCC1` [UNC0631], the LD50 in series [12] was 2 mg/kg. Besides, the concentration for half-maximal inhibition (IC50) in series [16] is 0.004 µM.
The molecule `CC(C)N(CCCNC(=O)Nc1ccc(C(C)(C)C)cc1)C[C@H]1O[C@@H](n2cc(Br)c3c(N)ncnc32)[C@H](O)[C@@H]1O` [SGC 0946] gave an LD50 in series [3] of 41.3 g. Moreover, the “Rat LD50” value in series [11] was 590 mg/kg.
In the case of `CCCCN1C[C@H](O)[C@@H](O)[C@H](O)[C@H]1CO` [N-B-DEOXYNOJIRIMYCIN], the “Residual estimated viral load” value in series [1] is listed as 10^7 pfu/ml. This molecule gave an ED50 in series [17] of 32.85 mg. Further, the LD50 entry in series [11] (rat, po) is reported as “LD50 1,300 mg mg kg-1”.
Turning to `O=c1c(O)c(-c2ccc(O)cc2)oc2cc(O)cc(O)c12` [Kaemferol], in series [12], the LD50 was 2170 mg/kg.
As to `NC(CCSCCCCC(=O)O)C(=O)O` (stereo not drawn) [s-carboxybutyl DL homocysteine], in series [12], the LD50 is reported as 500 mg/kg.
For `Nc1ncnc2c1ncn2[C@@H]1O[C@H](COP(=O)(O)O)[C@@H](O)[C@H]1O` [ADENOSINE MONOPHOSPHATE], in series [12], the LD50 is 2900 mg/kg.
